Data published in patent US10221427B2 (priority 2014, dated 2019).

How the values were obtained:
ENST1 (TaENST1-4A) = test system: ENST1 (TaENST1-4A); parameters: species or system wheat cv. CM82036; conditions: in vivo
Arabidopsis root hair = assay: Root hair assay (apoptosis-like programmed cell death); assay type: cell-based, Arabidopsis thaliana; conditions: 65 μM SA, one day post treatment
Procedure: The root hair assay was conducted as previously described (Kacprzyk et al. 2014). Briefly, five days old seedling were treated with 65 μM SA solution and incubated at 22° C. in constant light until scoring. The Apostosis-Like Program Cell Death (AL-PCD) was assessed by scoring root hair viability with a fluorescein diacetate (FDA) staining and examination under the microscope of the emission of the fluorescein when excited at the wavelength 485 nm. Root hairs negative for FDA staining were examined further and scored as programmed cell death (PCD) when having a condensed cell content and protoplast retracted away from the cell wall (as opposed to necrotic cells which have no retracted cytoplasm and therefore no distinguishable morphology compared to living cells under the light microscope). The percentage for each category was calculated as a percentage of the total number of root hair scored (about 100) averaged over at least three replicates.

Row | Compound | ENST1 expression in tissues treated with the toxin (ENST1 (TaENST1-4A)) | ENST1 induction by DON (ENST1 (TaENST1-4A)) [fold] | programmed cell death (PCD) in root hairs after SA treatment (Arabidopsis root hair)
1 | CC1=C[C@H]2O[C@@H]3[C@H](O)C[C@](C)([C@@]2(CO)[C@H](O)C1=O)[C@]31CO1 [DON, deoxynivalenol] | high expression | 43 | 
2 | O=C(O)c1ccccc1O [SA, salicylic acid] |  |  | significant inductions of PCD
